This note sets out measurements from US11964929B2, “Application of glutamine derivative in preparation of animal feed additive” (WISORIG TE[…]. LIMITED, priority 2018, dated 2024).

Test [1] relates to Duroc×Landrace×Yorkshire cross-bred bacon-type pigs. As to the kind of experiment: Effect of the glutamine derivatives on the production performance of hogs (piglets), 28-day feeding. Particulars: 65-day-old pigs, basal ration + 800 ppm, 28 days; for FCR (feed conversion ratio): ADFI/ADG. Type of test: in vivo. The text has this:
480 65-day-old Duroc×Landrace×Yorkshire cross-bred bacon-type pigs with similar body weight, were randomly divided into 16 groups, with 3 replications per group and 10 pigs (half of male and female) per replication. The pig pen and tools were sterilized before the experiment. […] The experiment lasted for 28 days.

Test [2] concerns yellow broilers. Particulars: 1-day-old yellow broilers, basal ration + 750 ppm, 20 days; for FCR (feed conversion ratio): ADFI/ADG.
Experimental: The experiment was conducted with single-factor randomized design. 720 1-day-old yellow broilers with a similar average body weight of 50 g, was randomly divided into 16 groups, each group consisting of 3 replicates and equal numbers of males and females, and each replicate consisting of 15 yellow broilers. The chicken house and tools were sterilized before the experiment. During the experiment, the broilers were kept in separate regions in the same chicken house under the same feeding and management conditions. Basal ration mainly consisted of corn and soybean meal. During the entire process, each treatment group was not given other antioxidants or growth promoters. […] The experiment lasted for 20 days. The broilers were given ad libitum access to food and water, and feeds were provided twice every day. At the day when the broilers were 21-day old (withdrawing feed for 12 hours, without withdrawing water), taking each replicate as one unit, body weights of the broilers were measured for calculating average daily feed intake (ADFI, g/d per broiler), average daily weigh gain (ADG, g/d per broiler), and feed conversion ratio (FCR). Feed conversion ratio (FCR)=Average daily feed intake/Average daily weight gain
Test [3] has as its system Grass carps. Particulars: basal ration + 500 ppm, 8 weeks; for Feed coefficient: 580/(final−initial weight); for Weight gain rate: (final−initial)/initial×100; for Average final weight: restricted feeding.
Experimental: Grass carps were used in this experiment, which is conducted in an aquaculture region in the Guangzhou Insighter experiment yard. Healthy grass carps with the same size were reared in large netcages for 4 weeks before the experiment. The grass carps were kept in small floating netcages during the experiment. The small netcages and netcages for acclimatization were both placed in a 3500 m^2 pond in the experiment yard. […] In the experiment, 520 grass carps, which had been starved for 1 day, were randomly divided into 13 groups, each group consisting of 4 replicates, and each replicate consisting of 10 grass carps. The grass carps were weighed, taking each replicate as a whole. Then they were randomly released to 52 netcages in which they were fed with different feeds. […] Feed restriction had been adopted during the experiment, and the feeding amount was adjusted once a week. The treatment and control groups were fed twice (7:30 and 15:30) every day, with their feeding levels (based on initial body weights) being identical to be a total amount of 580 g. The experiment lasted for 8 weeks.
Calculation: Weight gain rate (%)=(Average final weight−Average initial weight)/Average initial weight×100 Feed coefficient=580/(Average final weight−Average initial weight)

For the compound `CCNC(=O)CCC(NC(=O)c1ccccc1)C(=O)OCC` (stereo not drawn) [Compound 6], in test [1], the “ADFI (average daily feed intake)” value came to 1615 g/d per piglet, the “ADG (average daily weight gain)” value came to 646 g/d per piglet and the “FCR (feed conversion ratio)” value was determined as 2.499. In test [2], the “ADFI (average daily feed intake)” value worked out at 31.2 g/d per broiler, the “ADG (average daily weight gain)” value turned out to be 14.2 g/d per broiler and the “FCR (feed conversion ratio)” value worked out at 2.20. Moreover, in test [3], the Feed coefficient was determined as 1.77, the Weight gain rate was found to be 72.84% and the Average final weight is given as 681 g.
`CCNC(=O)CCC(NC(=O)c1ccc(O)cc1)C(=O)O` (stereo not drawn) [Compound 12]: in test [1], the “ADFI (average daily feed intake)” value was 1599 g/d per piglet, the “ADG (average daily weight gain)” value is recorded as 633 g/d per piglet and the “FCR (feed conversion ratio)” value came to 2.528. Also, in test [2], the “ADFI (average daily feed intake)” value is reported as 31.6 g/d per broiler, the “ADG (average daily weight gain)” value is 14.0 g/d per broiler and the “FCR (feed conversion ratio)” value is on record as 2.26. For the same compound, in test [3], the Feed coefficient stood at 1.79, the Weight gain rate worked out at 69.56% and the Average final weight is 692 g.
In the case of `CCCC(=O)NC(CCC(=O)NCC)C(=O)O` (stereo not drawn) [Compound 13], in test [1], the “ADFI (average daily feed intake)” value came out at 1609 g/d per piglet, the “ADG (average daily weight gain)” value amounted to 627 g/d per piglet and the “FCR (feed conversion ratio)” value worked out at 2.566. For the same compound, in test [2], the “ADFI (average daily feed intake)” value amounted to 31.3 g/d per broiler, the “ADG (average daily weight gain)” value turned out to be 13.7 g/d per broiler and the “FCR (feed conversion ratio)” value is given as 2.28. In test [3], the Feed coefficient came out at 1.83, the Weight gain rate turned out to be 70.42% and the Average final weight was found to be 687 g.
On to `CCNC(=O)CCC(NC(=O)c1ccccc1)C(=O)[O-].CCNC(=O)CCC(NC(=O)c1ccccc1)C(=O)[O-].[Zn+2]` (stereo not drawn) [Compound 7], for which, in test [1], the “ADFI (average daily feed intake)” value came out at 1674 g/d per piglet, the “ADG (average daily weight gain)” value is on record as 672 g/d per piglet and the “FCR (feed conversion ratio)” value is given as 2.491. In test [2], the “ADFI (average daily feed intake)” value is on record as 31.7 g/d per broiler, the “ADG (average daily weight gain)” value turned out to be 14.5 g/d per broiler and the “FCR (feed conversion ratio)” value is 2.18.
Regarding `CCNC(=O)CCC(NC(=O)c1ccc(Cl)cc1)C(=O)O` (stereo not drawn) [Compound 10], in test [1], the “ADFI (average daily feed intake)” value turned out to be 1607 g/d per piglet, the “ADG (average daily weight gain)” value came to 657 g/d per piglet and the “FCR (feed conversion ratio)” value is given as 2.508. In addition, in test [2], the “ADFI (average daily feed intake)” value is 32.2 g/d per broiler, the “ADG (average daily weight gain)” value came to 14.5 g/d per broiler and the “FCR (feed conversion ratio)” value worked out at 2.22. Moreover, in test [3], the Feed coefficient amounted to 1.81, the Weight gain rate is recorded as 72.34% and the Average final weight is reported as 669 g.
As to `CCNC(=O)CCC(NC(=O)c1ccccc1)C(=O)O` (stereo not drawn) [Compound 1], in test [1], the “ADFI (average daily feed intake)” value was 1657 g/d per piglet, the “ADG (average daily weight gain)” value came to 661 g/d per piglet and the “FCR (feed conversion ratio)” value was found to be 2.506. In addition, in test [2], the “ADFI (average daily feed intake)” value is listed as 32.8 g/d per broiler, the “ADG (average daily weight gain)” value is 14.8 g/d per broiler and the “FCR (feed conversion ratio)” value was 2.22. Moreover, in test [3], the Feed coefficient was 1.79, the Weight gain rate turned out to be 72.41% and the Average final weight was determined as 678 g.
Take `CCNC(=O)CCC(NC(=O)c1ccc(C)cc1)C(=O)O` (stereo not drawn) [Compound 11]: in test [1], the “ADFI (average daily feed intake)” value turned out to be 1592 g/d per piglet, the “ADG (average daily weight gain)” value is recorded as 634 g/d per piglet and the “FCR (feed conversion ratio)” value came to 2.512. Further, in test [2], the “ADFI (average daily feed intake)” value was 30.8 g/d per broiler, the “ADG (average daily weight gain)” value is on record as 13.8 g/d per broiler and the “FCR (feed conversion ratio)” value is given as 2.24. In test [3], the Feed coefficient is 1.80, the Weight gain rate was determined as 70.73% and the Average final weight came out at 681 g.
In the case of `CCCCNC(=O)CCC(NC(=O)c1ccccc1)C(=O)O` (stereo not drawn) [Compound 2], in test [1], the “ADFI (average daily feed intake)” value is reported as 1648 g/d per piglet, the “ADG (average daily weight gain)” value stood at 651 g/d per piglet and the “FCR (feed conversion ratio)” value is 2.531. In addition, in test [2], the “ADFI (average daily feed intake)” value was 31.5 g/d per broiler, the “ADG (average daily weight gain)” value is reported as 14.1 g/d per broiler and the “FCR (feed conversion ratio)” value came out at 2.23. In addition, in test [3], the Feed coefficient came out at 1.78, the Weight gain rate is recorded as 70.47% and the Average final weight came out at 690 g.
For `CCCCCCCCCC(=O)NC(CCC(=O)NCC)C(=O)O` (stereo not drawn) [Compound 14], in test [1], the “ADFI (average daily feed intake)” value is recorded as 1582 g/d per piglet, the “ADG (average daily weight gain)” value is 621 g/d per piglet and the “FCR (feed conversion ratio)” value is reported as 2.548. Besides, in test [2], the “ADFI (average daily feed intake)” value was 31.8 g/d per broiler, the “ADG (average daily weight gain)” value came to 14.0 g/d per broiler and the “FCR (feed conversion ratio)” value was 2.27. For the same compound, in test [3], the Feed coefficient is 1.81, the Weight gain rate is listed as 70.70% and the Average final weight worked out at 678 g.
As to `CCNC(=O)CCC(NC(=O)c1ccccc1)C(=O)[O-].CCNC(=O)CCC(NC(=O)c1ccccc1)C(=O)[O-].[Cu+2]` (stereo not drawn) [Compound 8], in test [1], the “ADFI (average daily feed intake)” value was 1670 g/d per piglet, the “ADG (average daily weight gain)” value was 671 g/d per piglet and the “FCR (feed conversion ratio)” value stood at 2.488. In test [2], the “ADFI (average daily feed intake)” value came to 30.6 g/d per broiler, the “ADG (average daily weight gain)” value was 14.2 g/d per broiler and the “FCR (feed conversion ratio)” value was 2.16.
For `O=C(NC(CCC(=O)N1CCCCC1)C(=O)O)c1ccccc1` (stereo not drawn) [Compound 5], in test [1], the “ADFI (average daily feed intake)” value is reported as 1633 g/d per piglet, the “ADG (average daily weight gain)” value turned out to be 651 g/d per piglet and the “FCR (feed conversion ratio)” value amounted to 2.510. In addition, in test [2], the “ADFI (average daily feed intake)” value is 30.9 g/d per broiler, the “ADG (average daily weight gain)” value amounted to 13.7 g/d per broiler and the “FCR (feed conversion ratio)” value turned out to be 2.26. Further, in test [3], the Feed coefficient is 1.80, the Weight gain rate was 71.27% and the Average final weight was 678 g.
As to `CCCCCCCCCCCCCC(=O)NC(CCC(=O)NCC)C(=O)O` (stereo not drawn) [Compound 15], in test [1], the “ADFI (average daily feed intake)” value is reported as 1670 g/d per piglet, the “ADG (average daily weight gain)” value amounted to 650 g/d per piglet and the “FCR (feed conversion ratio)” value is listed as 2.571. In test [2], the “ADFI (average daily feed intake)” value was found to be 32.4 g/d per broiler, the “ADG (average daily weight gain)” value was 14.6 g/d per broiler and the “FCR (feed conversion ratio)” value was found to be 2.22. In test [3], the Feed coefficient came to 1.80, the Weight gain rate was found to be 70.73% and the Average final weight was found to be 681 g.
`CCNC(=O)CCC(NC(=O)c1ccccc1)C(=O)[O-].CCNC(=O)CCC(NC(=O)c1ccccc1)C(=O)[O-].[Ca+2]` (stereo not drawn) [Compound 9]: in test [1], the “ADFI (average daily feed intake)” value is 1636 g/d per piglet, the “ADG (average daily weight gain)” value is 652 g/d per piglet and the “FCR (feed conversion ratio)” value worked out at 2.511. Besides, in test [2], the “ADFI (average daily feed intake)” value came out at 32.5 g/d per broiler, the “ADG (average daily weight gain)” value stood at 14.8 g/d per broiler and the “FCR (feed conversion ratio)” value was 2.20.
